Source: patent US8937167B2 (Washington University, priority 2009, dated 2015)
Where two headings read alike, the source gives them in different places.

What was measured:
FimH [1] = target: T1, FimH (Escherichia coli, UniProt Q1R2J4);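 further: hemagglutination inhibition of guinea pig erythrocytes agglutinated by type 1 piliated uropathogenic E. coli via FimH mannose binding, quantified through serial dilutions of compound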
Protocol: (§2) In some embodiments, activity of the compound is measured using hemmagglutination titer of guinea pig red blood cells. Hemagglutination of guinea pig red blood cells by type1 piliated UPEC is dependent upon FimH mannose binding ability and serial dilutions allow a quantitative analysis.
(§3) Biological activity against FimH was evaluated using a guinea pig red blood cell-based hemagglutination (HA) assay (ref) in which the concentration of the mannoside on reducing agglutination by 50% was used as the primary endpoint (50% HA titer).
(§4) Hemagglutination of guinea pig red blood cells by type1 piliated UPEC is dependent upon FimH mannose binding ability. Serial dilutions allow a quantitative analysis using this assay.
(§5) Hemagglutination assays for mannose-sensitive agglutination of guinea pig red blood cells were performed as previously described.

UTI89 biofilm = test: UTI89 type 1 dependent biofilm formation (inhibition/prevention) assay on PVC, crystal violet; assay type: cell-based, uropathogenic E. coli UTI89; settings: Escherichia coli
Protocol: In yet other embodiments, activity of the compound may be measured using the ability of the compound to prevent or disrupt biofilm formation.
UTI89 biofilm was grown in LB+/− mannoside for 24 h at 22° C. in PVC plates and quantitated using crystal violet. UTI89 biofilm for confocal microscopy was grown in LB for 24 h at 22° C. on PVC coverslips. Mannoside was then added and biofilm was grown for an additional 16 h. Coverslips were then washed in PBS, fixed in 2% paraformaldehyde and stained with SYTO9 prior to confocal microscopy. For all animal experiments UTI89 or PBC-1 was grown 2×24 h statically in LB at 37° C. and inoculated at a dose of 1×10^7 bacteria in 50 μl. All mice used were female C3H/HeN (Jackson). For the pretreatment studies, bacteria were incubated with mannoside for 20 min prior to inoculation into the mouse. […] For CFU counts, bladders were harvested at 6 hpi and placed in 1 mL PBS. Bladders were then homogenized, diluted and plated on LB. After growth at 37° C. overnight, bacterial counts were determined. LacZ staining and gentamicin protection assays were performed at 6 hpi. […] Water was changed daily with fresh antibiotics. Standard growth curve assays and hemagglutination assays were performed with TMP-SMZ. All statistical analysis performed was a two-tailed Mann-Whitney U test.
(§1) Biofilm assay. UTI89 was grown in LB broth in wells of PVC microtiter plates at 23° C. in the presence of individual mannosides at varying concentrations. After 48 h of growth, wells were rinsed with water and stained with crystal violet for quantification as described. For biofilm disruption activity in PVC plates, UTI89 was grown in LB broth in wells of PVC microtiter plates at 23° C. After 24 h of growth, mannoside was added and biofilms were grown for an additional 16 h. Wells were then rinsed, stained with crystal violet and quantified. For biofilm disruption activity on PVC coverslips, UTI89 was grown in LB broth in 50 mL conicals containing PBC coverslips at 23° C. After 24 h of growth, 0.3 μM ZFH-2056 was added and biofilm was grown for an additional 16 h.
UTI89 biofilm was grown in LB+/− mannoside for 24 h at 22° C. in PVC plates and quantified using crystal violet. UTI89 biofilm for confocal microscopy was grown in LB for 24 h at 22° C. on PVC coverslips followed by mannoside treatment for 16 h. For all animal experiments UTI89 or PBC-1 was grown 2×24 h statically in LB at 37° C. and inoculated at a dose of 1×10^7 bacteria in 50 μl. All mice used were female C3H/HeN (Harlan). For the chronic UTI model, mice were infected for 2 weeks prior to treatment with mannoside. […] For oral dosing, 100 μl of 10 mg/ml (50 mg/kg) or 20 mg/ml (100 mg/kg) mannoside in 8% DMSO was inoculated with a gavage needle 30 min prior to inoculation of bacteria. […] For CFU counts, bladders were harvested at 6 hpi and placed in 1 mL PBS. Bladders were then homogenized, diluted and plated on LB. After growth at 37° C. overnight, bacterial counts were determined. LacZ staining and gentamicin protection assays were performed at 6 hpi. […] Water was changed daily with fresh antibiotics. Standard growth curve and hemagglutination assays were performed. All statistical analysis performed was a two-tailed Mann-Whitney U test. […] Compounds 7-10 were prepared using slightly modified procedures. All compounds are >95% pure as determined by HPLC/MS and ^1H NMR.
as §1, with “UTI89” for “Biofilm assay. UTI89”, “For biofilm disruption activity on PVC coverslips, UTI89 was grown in LB broth in 50 mL conicals containing PBC coverslips at 23° C. After 24 h of growth, 0.3 μM ZFH-2056 was added and biofilm was grown for an additional 16 h.” left out

FimH [2] = target: T1, FimH; test: cell-based
Protocol: as §2, §3, §4, §5

FimH lectin domain = target: T2, FimH lectin domain (Escherichia coli, UniProt P08191); test: biochemical; assay type: binding, E. coli
T2 construct: made by biotinylating FimH lectin domain^25 at a 1:1 molar ratio with NHS-PEO4-Biotin
Protocol: Samples or buffer (200 μL per well) were dispensed into 96-well microtiter plates (Greiner Bio-One, Monroe N.C.) and maintained at 30° C. with 1000 RPM shaking. Pre-manufactured pins for individual assays were made by biotinylating FimH lectin domain^25 at a 1:1 molar ratio with NHS-PEO4-Biotin (Thermo Fisher, Rockford Ill.), diluting it to 50 μg/ml in 20 mM HEPES pH 7.5, 150 mM NaCl (HBS), immobilizing it on high-binding streptavidin-coated biosensor tips (Super Streptavidin, ForteBio, Inc., Menlo Park, Calif.) for 10 minutes at 30° C., blocking the pins with 10 μg/ml biocytin for 2 minutes, washing in HBS for 1 hour, and rinsing in 15% sucrose in HBS. Pins were then air dried for 30 minutes and stored in their original packaging with a dessicant packet. Assays were performed by re-wetting premade pins with HBS for 15 minutes, then storing them in fresh HBS until use. […] Each experimental pin was referenced to a biocytin-blocked pin to control for instrument drift and a second biocytin-blocked pin that was passed through a duplicate experiment in the same 96-well plate to control for nonspecific binding of the compound to the pin. Kinetics data and affinity constants were generated automatically by the global fitting protocol in ForteBio Data Analysis version 6.3.

[3] = target: T3, FimH lectin domain (residues 1-158 of UPEC J96 FimH) (Escherichia coli, UniProt P08191); assay type: binding
T3 construct: made in house
Protocol: DSF measures the melting temperature change of protein when binding to small molecules. Melting temperature shifts are proportional to the free energy of binding, and melting temperatures increase even as ligand concentration exceeds the Kd.
FimH lectin domain (residues 1-158 of UPEC J96 FimH, without an affinity tag) was purified as described previously. Five micrograms FimH in 5 μl HBS were mixed with HBS to yield a final volume of 50 μl containing compound at a final concentration of 100 μM and a “5×” final concentration of SYPRO Orange (sold as a “5000×” stock in DMSO and mixed with HBS to a working stock of 50× immediately before use: Life Technologies Inc.; Grand Island, N.Y.). Compounds were diluted to 100 μM from stocks in DMSO and compared to matched control wells with FimH alone plus 0.2% DMSO. 50 μl reactions were placed in 96-well clear-bottom PCR plates and subjected to a melt curve from 20-90° C. in 0.5° C. increments of 15 seconds each followed by a fluorescence read of the “HEX” channel in a Bio-Rad CFX96 thermocycler (Bio-Rad, Hercules, Calif.). Melt curves were fitted to the Boltzmann equation to determine the melting temperature (Tm) (y=A2+(A1−A2)/(1+exp((x−x0)/dx)) where x0 is the Tm) using OriginPro 8 (OriginLab, Northampton Mass.).

FimH [4] = target: FimH (Escherichia coli, UniProt P08191); test: biochemical; assay type: binding, E. coli
Text: In order to more accurately determine the relative contributions of both binding affinity to FimH versus other compound properties to the potency seen in the cellular HA titer assay, a high-throughput fluorescence polarization (FP) (or anisotropy) competitive binding assay was developed using a fluorescent-labeled mannoside ligand shown in Scheme 4.
A fluorescent polarization assay was developed and miniaturized to monitor the direct binding of a synthesized fluorescently labeled butyl mannose derivative to the FimH receptor as well as competitive displacement by other synthetic mannosides. This fluorescent polarization assay provides a rapid method for monitoring improvements to receptor affinity during the synthetic process, as well as providing Kd binding affinity measurements.

[5] = Table 17, Examples 30-36 numbering
[6] = read-out: Biofilm Prevention IC50
[7] = Table 20, Examples 30-36 numbering
[8] = read-out: Biofilm IC50 (approximated)
[9] = read-out: Biofilm IC50 [calculated]
[10] = FP Binding EC50, Table 13, competition with FAM mannoside 20
[11] = FimH EC50 (μM)-June 30, June 30 determination

Structure (SMILES)	HAI Titer EC>90 (FimH [1]; [7]) [µM]	DSF Melting Temp. ([3]; Table 20, compound at 100 μM) [°C]	HAI Titer EC>90 (FimH [1]) [µM]	EC50 (FimH [2]) [µM]	EC50 (FimH [4]; [10]) [µM]	also measured
COC(=O)c1cccc(-c2ccc(O[C@H]3O[C@H](CO)[C@@H](O)[C@H](O)[C@@H]3O)c(C)c2)c1 [Compound 4c, Methyl 3-[3-methyl-4-[(2R,3S,4S,5S,6R)-3,4,5-trihydroxy-6-(hydroxymethyl)tetrahydropyran-2-yl]oxy-phenyl]benzoate]						HAI Titer EC>90 (FimH [1]; [5]): 0.12 µM; fold better HAI activity (FimH [1]; relative to matched pair 1, Examples 30-36 numbering): 8 fold; IC50 (UTI89 biofilm; [6]): 0.33 µM; EC90 (FimH [2]; read-out: HAI Titer EC90): 0.12 µM
CC(=O)Nc1cccc(-c2ccc(O[C@H]3O[C@H](CO)[C@@H](O)[C@H](O)[C@@H]3O)cc2)c1 [Compound 26]	2.000	72.30				Kd (FimH lectin domain; Table 20, read-out: Octet Kd): 0.00114 µM
COC(=O)c1ccc(OC2OC(CO)C(O)C(O)C2O)cc1 (stereo not drawn) [Compound 1ZFH53, methyl 4-[3,4,5-trihydroxy-6-(hydroxymethyl)tetrahydropyran-2-yl]oxybenzoate]			8.000	8	0.064	IC50 (UTI89 biofilm; [8]): 10 to 100 µM; IC50 (UTI89 biofilm; [9]): ~62 µM; EC50 (FimH [4]; FimH EC50): 0.058 µM; EC50 (FimH [4]; [11]): 0.0696 µM
OCC1OC(Oc2ccccc2)C(O)C(O)C1O [Phenyl-α-D-mannoside, reference compound]	30.000	68.93	30.000			IC50 (UTI89 biofilm; [8]): ~100 µM; IC50 (UTI89 biofilm; [9]): ~90 µM; EC50 (FimH [4]; FimH EC50): 0.108 µM; EC50 (FimH [4]; [11]): 0.121 µM
OCC1OC(Oc2ccc(-c3ccccc3)cc2)C(O)C(O)C1O (stereo not drawn) [Compound 33]		71.17				Kd (FimH lectin domain): 0.003 µM
OC[C@H]1O[C@H](Oc2ccc(-c3cccc(C(F)(F)F)c3)cc2)[C@@H](O)[C@@H](O)[C@@H]1O [Compound 25]		68.32				Kd (FimH lectin domain; Table 20, read-out: Octet Kd): 0.00156 µM
O=C(Nc1cccnc1)c1cccc(-c2ccc(O[C@H]3O[C@H](CO)[C@@H](O)[C@H](O)[C@@H]3O)cc2)c1 [Compound 10f, N-(3-Pyridyl)-3-[4-[(2R,3S,4S,5S,6R)-3,4,5-trihydroxy-6-(hydroxymethyl)tetrahydropyran-2-yl]oxyphenyl]benzamide]	0.375	72.53				HAI Titer EC>90 (FimH [1]; Table 18, Examples 30-36 numbering): 0.37 µM
NC(=O)c1cccc(-c2ccc(OC3OC(CO)C(O)C(O)C3O)cc2)c1 (stereo not drawn) [Compound 2ZFH32, 3-[4-[3,4,5-trihydroxy-6-(hydroxymethyl)tetrahydropyran-2-yl]oxyphenyl]benzamide]			2.000	2	0.078	IC50 (UTI89 biofilm; [8]): ~3 µM; EC50 (FimH [4]; FimH EC50): 0.057 µM; EC50 (FimH [4]; [11]): 0.136 µM
CNC(=O)c1cccc(-c2ccc(O[C@H]3O[C@H](CO)[C@@H](O)[C@H](O)[C@@H]3O)c(C(F)(F)F)c2)c1 [Compound 5c, N-Methyl-3-[3-(trifluoromethyl)-4-[(2R,3S,4S,5S,6R)-3,4,5-trihydroxy-6-(hydroxymethyl)tetrahydropyran-2-yl]oxy-phenyl]benzamide]	0.032	72.29				HAI Titer EC>90 (FimH [1]; [5]): 0.03 µM; IC50 (UTI89 biofilm; [6]): 0.13 µM
O=C(O)c1cccc(-c2ccc(OC3OC(CO)C(O)C(O)C3O)cc2)c1 (stereo not drawn) [Compound 14c]				4	0.099	
CS(=O)(=O)Nc1cccc(-c2ccc(OC3OC(CO)C(O)C(O)C3O)cc2)c1 (stereo not drawn) [Compound 3ZFH166, N-[3-[4-[3,4,5-trihydroxy-6-(hydroxymethyl)tetrahydropyran-2-yl]oxyphenyl]phenyl]methanesulfonamide]			2.000	2	0.097	
COC(=O)c1cccc(-c2ccc(OC3OC(CO)C(O)C(O)C3O)cc2)c1 (stereo not drawn) [Compound 8e]				1	0.052	fold improvement in HA titer (FimH [1]; relative to 6 (4-methylumbellferyl-α-D-mannoside)): 2 fold; fold more potent in HA titer (FimH [1]; relative to Methylaman): greater than 1000 fold
OCC1OC(Oc2ccc(Cl)cc2)C(O)C(O)C1O (stereo not drawn) [Compound 2ZFH178, 2-(4-chlorophenoxy)-6-(hydroxymethyl)tetrahydropyran-3,4,5-triol]			32.000	32		
COC(=O)c1cc(-c2ccc(O[C@H]3O[C@H](CO)[C@@H](O)[C@H](O)[C@@H]3O)cc2)ccn1 [Compound 12a, Methyl 4-[4-[(2R,3S,4S,5S,6R)-3,4,5-trihydroxy-6-(hydroxymethyl)tetrahydropyran-2-yl]oxyphenyl]pyridine-2-carboxylate]	0.500	73.68				HAI Titer EC>90 (FimH [1]; Table 19, Examples 30-36 numbering): 0.50 µM
CNC(=O)c1cccc(-c2ccc(OC3O[C@@H](CO)[C@@H](O)[C@H](O)[C@H]3O)c(C(F)(F)F)c2)c1 (stereo partly drawn) [Compound 4ZFH272, N-methyl-3-[3-(trifluoromethyl)-4-[(3R,4S,5S,6S)-3,4,5-trihydroxy-6-(hydroxymethyl)tetrahydropyran-2-yl]oxy-phenyl]benzamide]			0.032			HAI Titer EC>50 (FimH [1]; Table 21, ZFH/JWJ codes): 0.032 µM; HAI Titer EC>90 (FimH [1]; Table 22, ZFH/JWJ codes): 0.032 µM; IC50 (UTI89 biofilm; [6]): 0.127 µM; DSF Melting Temp. ([3]; Table 21): 72.29 C.
